This is an account of results in patent publication US9504702B2, “Methods of inhibition of protein fucosylation in vivo using fucose analogs” (Seattle Genetics, Inc., priority 2010, dated 2016).

In data set [1] the test system is P-selectin ligand on Ramos cells. Put plainly: Cell surface P-selectin ligand by FACS, P-selectin fusion protein, Ramos. It is filed as cell-based, human. The protocol: 100 μM of each inhibitor was used under standard culture conditions for approximately 1-2 weeks with regular changes of culture medium including fresh inhibitor. After the incubation period, the cells were analyzed by FACS using four different detection reagents: biotinylated-Lens culimaris agglutinin-A (LCA), anti-Lewis' antibody (anti-SSEA1), an anti-Lewis^y antibody (cBR96), and a Recombinant Human P-Selectin/CD62P/Fc Fusion protein. The procedure involved washing of the cells with FACS buffer (PBS+10% bovine serum albumin+0.02% sodium azide) 3 times followed by incubation with the primary detection reagent for 1 hr at 4° C., followed by 3 washes with FACS buffer and then incubation with the secondary detection reagent for 1 hr at 4° C. The cells were finally washed with FACS buffer 3 times and resuspended in FACS buffer and examined using a BD FACScan instrument. […] The P-selectin fusion protein detects P-selectin ligand present on the surface of cells, an interaction which involves the sialyl Lewis' epitope present of the P-selectin ligand.

In data set [2] the test system is LP-1, a human multiple myeloma cell line (IgG fucosylation). Put plainly: Fucosylation of LP-1-generated IgG, AOL dot blot. It counts as cell-based. The settings on record: Homo sapiens, LP-1, 120 h, 5 days, LP-1 cells, AOL dot blot, multiple samples separated by semicolon, read-out: % of control fucosylated IgG value. The protocol: To further evaluate the activities of different fucose analogs, 48 different fucose analogs and other four glycosylation inhibitors were tested for their ability to affect the fucosylation the LP-1-generated IgG. LP-1 cells (250,000 cells/mL, 3 mL per compound in 6-well plates) were incubated with 100 μM of each fucose analog for 5 days at 37° C. with a humidified atmosphere of 5% CO2 in IgG-depleted tissue culture media (90% RPMI with 10% IgG-depleted heat inactivated FBS). The IgG was isolated as described above using only 0.5 mL of MabSelect™ protein A resin slurry and one spin cup per sample with elution in 400 μL of IgG elution buffer into 25 μL of 9 M Tris buffer, pH 9. The eluates were concentrated to 10-20 μL per sample and 2 μL of each of the concentrated eluates were dotted onto a nitrocellulose membrane and stained with Ponceau S to estimate and adjust the sample loading for AOL staining. From this estimation of total protein in each sample, approximately 0.5 μg of each sample was dotted onto the membrane, air-dried, and stained with Ponceau S. An image of this stained membrane was captured using an Alpha Innotech FlourChem® Q system. The membrane was then blocked with 5% Bovine Serum Albumin (BSA) in Tris Buffered Saline (TBS) for 1 hr, washed with TBST (TBS with […]) 3 times and then incubated with 5 μg/ml biotinylated-AOL for 1 hr. The membrane was washed again with TBST 3 times, followed by Streptavidin-HRP incubation for 30 min and final washes with TBST 3 times.

Data set [3] deals with antibody core fucosylation (CHO DG44 cell line producing humanized IgG1 anti-CD70 antibody h1F6). Put plainly: Inhibition of antibody core fucosylation in CHO DG44 cell culture producing h1F6. It counts as cell-based. The settings on record: 120 h; 50 μM fucose analog, day 5, CHO DG44 h1F6; read-out: Inhibition at 50 μM. The protocol:
Fucose analogs have been evaluated for their effect on antibody core fucosylation at concentrations of 50 μM and 1 mM generally as described in Published US Patent Application 2009-0317869. Briefly, the protocol was as follows: A CHO DG44 cell line producing a humanized IgG1 anti-CD70 monoclonal antibody, h1F6 (see International Patent Publication WO 06/113909) was cultured at 7.5×10^5 cells per mL in 2 mLs of CHO culture media at 37°, 5% CO2 and shaking at 100 RPM in a 6 well tissue culture plate. Media was supplemented with insulin like growth factor (IGF), penicillin, streptomycin and either 1 mM or 50 μM of the fucose analog. On day 5 post inoculation, the culture was centrifuged at 13000 RPM for 5 minutes to pellet the cells; antibodies were then purified from supernatant.
Antibody purification was performed by applying the conditioned media to protein A resin pre-equilibrated with 1× phosphate buffered saline (PBS), pH 7.4. After washing resin with 20 resin bed volumes of 1×PBS, antibodies were eluted with 5 resin bed volumes of Immunopure IgG elution buffer (Pierce Biotechnology, Rockford, Ill.). A 10% volume of 1M Tris pH 8.0 was added to neutralize the eluted fraction.

For data set [4], the system named is antibody core fucosylation (antibodies that did not bind to KLH, recovered from protein A column). Put plainly: In vivo antibody fucosylation after ip dosing (Example 1, Study 1), AOL lectin dot blot. The settings on record: 150 mg/kg ip daily for 7 days. The protocol: Female BALB/c mice were immunized with Keyhole Limpet Hemocyanin (KLH) 30-60 days prior to starting this study. For the first study, mice were dosed ip with 150 mg/kg of alkynyl fucose (SGD-1887), alkynyl fucose peracetate (SGD-1890), 2-fluorofucose (SGD-2083), or 2-fluorofucose triacetate (SGD-2084) daily for 7 days or were untreated. On day 2, mice were also boosted with KLH. On the day after the last ip dose, mice were terminally bled and serum obtained. For the second study, mice were given 100 mM of 2-fluorofucose (SGD-2083) in their drinking water or given untreated water for 7 days, boosted with KLH, and continued with 100 mM 2-fluorofucose containing drinking water or untreated water for 7 more days before being terminally bled. Serum was then obtained. No mice died in either study. For both studies, serum was passed over a commercial anti-KLH affinity column to obtain KLH-specific polyclonal antibodies. The flow through from the anti-KLH affinity column was passed over a commercial protein A column to obtain the remaining antibodies.
Dot blots: 0.5 μg each of antibodies from untreated and treated animals, as well as standards of antibody cAC10 having known amounts of core fucosylation (0 to 100% fucose), were blotted onto a nitrocellulose membrane. The proteins levels were visualized by Ponceau staining. The blot was probed with biotinylated Aspergillus oryzae L-fucose-specific lectin (AOL) (which binds to fucosylated antibodies) and developed with streptavidin HRP and ECL. Gel loading (visible) and fucose signals (bioluminescence) were measured with an Alpha Innotech camera and quantitated with the machine software.

SMILES strings stand for the structures. Where only a bound is given, the exact number is not on record here.

Usually Inhibition stands for the drop in the measured response relative to a control, in per cent.

For `C#CC(O)[C@@H](O)[C@@H](O)[C@H](O)C=O` (some centres unmarked) [SGD-1887, 5-ethynylarabinose], in data set [1], the “signal for P-selectin ligand (increase upon treatment)” value is reported as “not observed”. The activity at 100 µM in data set [2] stood at 3%. The Inhibition at 50 μM in data set [3] was > 80%. Further, the mortality result in data set [4] is given as “No mice died”. The “fucosylation levels of the antibodies reduced, as compared to the untreated controls” value in data set [4] (non-KLH antibodies from protein A column, dot blot, on average) was “about one third”.
